Source: patent US5624902A, “Peptide inhibitors of calmodulin” (Torrey Pines Institute for Molecular Studies, priority 1995, dated 1997)
Square brackets hold non-standard residues; d marks the D form. Peptide text beside a SMILES is read from it.

Molecular target: calmodulin (Homo sapiens, UniProt P0DP23)
Assay: calcium-dependent phosphodiesterase assay (inhibition of calmodulin activity)
Format: biochemical
Settings: for inhibition at 50 µM: inhibition of calmodulin activation of phosphodiesterase at 50 μM peptide, PDE without calmodulin = 100%, Calmo = 0%; for IC50: concentration inhibiting 50% of calmodulin activity, assayed at 75 μM, 50 μM and 12.5 μM
Experimental: In this assay, calmodulin can be assayed by its ability to stimulate phosphodiesterase activity as determined by a two-step assay procedure illustrated by reactions (1) and (2).
During the first step of the assay cyclic adenosine 3'5'-monophosphate (cAMP) is incubated with calcium-activated phosphodiesterase (Cal-PDE), which hydrolyses the 3' bond producing adenosine 5'-monophosphate (5'-AMP). During the second step 5'-AMP is quantitatively converted into adenosine and inorganic phosphate (Pi) through the action of a 5'-nucleotidase. […] The amount of Pi formed is directly related to the phosphodiesterase activity which depends on the level of activation by calmodulin.
To sample assay tubes were added the following components: assay buffer, 25 μl; CaCl2, 5 μl; 5'-nucleotidase, 7.5 μl (stock solution is 10 units/ml); calmodulin 5 units; calmodulin inhibitor peptides to obtain the desired final concentration of 50 μM. The volume was then made up to 200 μl with water. Control blanks were prepared replacing the peptides with water. The added components were thoroughly mixed and the tubes incubated at 30° C. for 10 min. […] The samples were centrifuged to remove the protein precipitate and the 50 μl of the supernatant was withdrawn for phosphate measurement. […] The absorbance of the solution were read at 660 nm using water as a blank, identified as control "Calmo," as discussed in more detail below.
These three peptides commonly used in every assay as control of reproducibility of the assay.
In addition to the calcium-dependent phosphodiesterase assay data, IC50 values were determined for many of the peptides. The assay carried out for the determination in the IC50 values differed from the above screening assay by the concentration of the peptides being tested.
(2) W13: N-(4-aminobutyl)-5-chloro-2-naphtalenesulfonamide; (3) TFP: trifluoperazine; (4) Calmidasolium: (1-[bis-(4-chlorophenyl)methyl]-3[-2-(2,4-dichlorophenyl)-2[(2,4-dichlorophenyl)methoxy]-ethyl]-1H-imidazolium chloride. The IC50 values were calculated using sigmoidal curve software (Graphpad, ISI, San Diego) using the % inhibition at different mixture concentrations (see attached protocol for determination of % inhibition).

SMILES | inhibition at 50 µM | IC50
CC(=O)N[C@H](CC(C)C)C(=O)N[C@H](CCC(N)=O)C(=O)N[C@H](CCCNC(=N)N)C(=O)N[C@H](Cc1c[nH]cn1)C(=O)N[C@H](CC(C)C)C(=O)N[C@H](CCCNC(=N)N)C(N)=O [Ac-(D)Leu-(D)Gln-(D)Arg-(D)His-(D)Leu-(D)Arg-NH2] (Ac-[dL][dQ][dR][dH][dL][dR]-NH2) | 64.5% | 
CC[C@@H](C)[C@@H](NC(=O)[C@@H](Cc1c[nH]c2ccccc12)NC(=O)[C@@H](CC(C)C)NC(C)=O)C(=O)N[C@@H](C(=O)N[C@H](Cc1c[nH]cn1)C(=O)N[C@H](Cc1c[nH]c2ccccc12)C(N)=O)[C@H](C)CC [Ac-(D)Leu-(D)Trp-(D)Ile-(D)Ile-(D)His-(D)Trp-NH2] (Ac-[dL][dW][dI][dI][dH][dW]-NH2) | 92.1% | ≤ 9 µM
CC[C@@H](C)[C@@H](NC(=O)[C@@H](Cc1c[nH]c2ccccc12)NC(=O)[C@@H](CC(C)C)NC(C)=O)C(=O)N[C@H](Cc1c[nH]cn1)C(=O)N[C@H](Cc1c[nH]cn1)C(=O)N[C@H](Cc1c[nH]c2ccccc12)C(N)=O [Ac-(D)Leu-(D)Trp-(D)Ile-(D)His-(D)His-(D)Trp-NH2] (Ac-[dL][dW][dI][dH][dH][dW]-NH2) | 103% | 24 µM
CC[C@H](C)[C@H](NC(=O)[C@H](Cc1ccccc1)NC(C)=O)C(=O)N[C@H](C(=O)N[C@@H](Cc1c[nH]c2ccccc12)C(=O)N[C@@H](Cc1ccccc1)C(=O)N[C@@H](CCC(=O)O)C(N)=O)[C@@H](C)CC [Ctr 3, Ac-Phe-Ile-Ile-Trp-Phe-Glu-NH2, reference compound] (Ac-FIIWFE-NH2) | 107% | 
CC(=O)N[C@H](CC(C)C)C(=O)N[C@H](CCC(N)=O)C(=O)N[C@H](CCCNC(=N)N)C(=O)N[C@H](Cc1c[nH]cn1)C(=O)N[C@H](Cc1c[nH]cn1)C(=O)N[C@H](Cc1c[nH]c2ccccc12)C(N)=O [Ac-(D)Leu-(D)Gln-(D)Arg-(D)His-(D)His-(D)Trp-NH2] (Ac-[dL][dQ][dR][dH][dH][dW]-NH2) | 79% | 
CC[C@@H](C)[C@@H](NC(=O)[C@@H](CCCNC(=N)N)NC(=O)[C@@H](CCC(N)=O)NC(=O)[C@@H](CC(C)C)NC(C)=O)C(=O)N[C@H](Cc1c[nH]cn1)C(=O)N[C@H](Cc1c[nH]c2ccccc12)C(N)=O [Ac-(D)Leu-(D)Gln-(D)Arg-(D)Ile-(D)His-(D)Trp-NH2] (Ac-[dL][dQ][dR][dI][dH][dW]-NH2) | 34.2% | 40 µM
CC[C@@H](C)[C@@H](NC(=O)[C@@H](CCCNC(=N)N)NC(=O)[C@@H](Cc1c[nH]c2ccccc12)NC(=O)[C@@H](CC(C)C)NC(C)=O)C(=O)N[C@H](Cc1c[nH]cn1)C(=O)N[C@H](Cc1c[nH]c2ccccc12)C(N)=O [Ac-(D)Leu-(D)Trp-(D)Arg-(D)Ile-(D)His-(D)Trp-NH2] (Ac-[dL][dW][dR][dI][dH][dW]-NH2) | 52.6% | 
CC[C@@H](C)[C@@H](NC(=O)[C@@H](CCC(N)=O)NC(=O)[C@@H](CC(C)C)NC(C)=O)C(=O)N[C@H](Cc1c[nH]cn1)C(=O)N[C@H](Cc1c[nH]cn1)C(=O)N[C@H](CCCNC(=N)N)C(N)=O [Ac-(D)Leu-(D)Gln-(D)Ile-(D)His-(D)His-(D)Arg-NH2] (Ac-[dL][dQ][dI][dH][dH][dR]-NH2) | 43.4% | 
CC[C@@H](C)[C@@H](NC(=O)[C@@H](CCC(N)=O)NC(=O)[C@@H](CC(C)C)NC(C)=O)C(=O)N[C@@H](C(=O)N[C@H](CC(C)C)C(=O)N[C@H](CCCNC(=N)N)C(N)=O)[C@H](C)CC [Ac-(D)Leu-(D)Gln-(D)Ile-(D)Ile-(D)Leu-(D)Arg-NH2] (Ac-[dL][dQ][dI][dI][dL][dR]-NH2) | 15.8% | > 50 µM
